# Measurements from patent US10071954B2, “Hydrogen peroxide-activated compounds as selective anti-cancer therapeutics” (University of Cincinnati, priority 2014, dated 2018).
# Where two headings read alike, the source gives them in different places.
# Tests used:
# [1] = Oxidation of compound 1 to 2 in PBS, HPLC analysis; assay type: physicochemical
# Protocol: To mimic cellular addition, 1 was incubated in PBS with limiting N-acetylcysteine and the products were analyzed by HPLC (FIG. 3C). The limiting N-acetylcysteine was necessary due to the formation of multiple addition products, since addition of a thiol to the aromatic ring makes further oxidation and addition easier. Compound 1 was converted to 2 in the absence of exogenous oxidant at a rate of 0.011±0.002 min^−1 (FIG. 3D, grey line), which leads to approximately 50% conversion in one hour. ROS-induced activation of 1 was then assessed. In the presence of 10 mM H2O2, a ten-fold excess, the rate of conversion was enhanced by […] to 0.6±0.1 min^−1. Once 2 was formed, N-acetylcysteine was added and NAC-2 was rapidly produced (FIG. 3C, black line) as confirmed by FTMS (FIG. 3E).
# MA9.3RAS AML cells = test: MTT cytotoxicity assay in MA9.3RAS AML cells; assay type: cell-based, human
# Protocol: (§1) Cells were seeded at a density of 4×10^4 cells/well in a 96-well plate and incubated at 37° C. overnight. Then cells were treated for 48 hours with indicated concentrations of freshly dissolved compounds. The plates were centrifuged at 1500×g for 5 minutes at 4° C. to pellet the cells and the medium containing compounds was discarded; fresh medium containing 20 μL of MTT (5 mg/mL) was added to each well and incubated for an additional 4 h. The medium was removed. After adding 200 μL of DMSO to each well, the optical densities at 575 nm were determined. Cytotoxicity data are expressed as IC50 values obtained from the fit to a four parameter sigmoid using the graphing software KaleidaGraph (Synergy Software). All R^2 values were greater than 0.98 and standard errors of the three replicates were less than 20%.
# Structural components within 1 were then probed to determine effect on potency. The goal was to obtain activity that matched the two natural products, PTL and PLG, which show efficacy in tumor xenografts in mice. As a model system cytotoxicity of synthesized agents in the MA9.3RAS AML cell line was examined. These cells are transformed CD34^+ human blood stem cells engineered to express both an MLL-AF9 fusion protein and the common oncogene NrasG12D. Culturing was accomplished as previously described by Wunderlich, et al., Leukemia 24(10):1785-88 (2010). The molecular signatures associated with these cells closely mimic those identified in primary AML patient samples and the MLL-fusion is associated with poor survival. Cytotoxicity studies were performed in triplicates using an MTT cell proliferation assay. All MTT assays were repeated twice.
# [2] = tested on: CD34+ normal human blood stem cells vs MA9.3RAS AML cells; test: Selectivity factor: ratio of IC50 of normal cells over IC50 of AML cells; assay type: cell-based; conditions: for selectivity factor (ratio of IC50 of normal cells over IC50 of AML cells): CD34+ normal human blood stem cells / MA9.3RAS AML cells
# From the text: (§2) The selectivity of select compounds was examined by treatment of primary CD34^+ normal human blood stem cells. These are untransformed and are genetically similar to MA9.3RAS cells except they lack the MLL-AF9 oncogene and active Nras^G12D oncogene. It is essential that reactive agents be selective since off-target reactivity is of great concern. In anti-cancer compounds, a selectivity factor, which in this instance is the ratio between the IC50 of normal cells over the IC50 of the AML cells, of one log unit is desired. Compound 1 is marginally selective with a ratio of 2.0±0.2. […] Conversion of the aniline to an alkyl amine led to improved selectivity.
# [3] = tested on: CD34+ selected human umbilical cord blood cells (UCB); test: MTT cytotoxicity assay in CD34+ selected umbilical cord blood cells (normal blood stem cells); assay type: cell-based; conditions: for IC50: CD34+ selected human umbilical cord blood cells, 48 hours treatment, MTT, read-out: IC50 against UCB
# Protocol: as §1, §2
# [4] = Oxidation of compound 14, HPLC analysis; assay type: physicochemical
# Protocol: These products were produced via both spontaneous and hydrogen-peroxide induced oxidation but not under an argon atmosphere (FIG. 4C right hand side). […] Importantly, addition of one molar equivalent hydrogen peroxide led to a near instantaneous conversion to the oxidized products. Using the lower limit of t1/2 less than 1 min leads to a large rate enhancement. Initially, the two products were isolated and a high-resolution MS was obtained on both. […] Several tautomers of 14-ox are possible (see FIG. 5A).
# AML cells = test: Cellular ROS level by DCF fluorescence assay; assay type: cell-based
# Protocol: Though it is widely accepted that bulk AML cells have elevated concentrations of reactive oxygen, it was desirable to ensure that the instant models had higher levels of ROS than healthy cells. CD34+ blood stem cells were harvested from three donors. Cells were counted, incubated with 2,7-dihydrodichlorofluorescein (DCF) diacetate, and their respective fluorescence compared after 30 min (FIG. 7). After deacylation, DCF is oxidized by a broad spectrum of ROS species and oxidases. Thus is a marker of general ROS and oxidation within cells. The three CD34+ selected UCB cell populations each derived from different healthy donors referred as #1 through #3 (FIG. 7) had fluorescence intensity of 0.69±0.03 (p<0.002), 0.60±0.03 (p<10^−6), 0.54±0.02 (p<10^−6) compared to 1.00±0.02 in the AML cell model.
# In order for 14 to be ROS-activatable, it needs to enter a cell and react with hydrogen peroxide, thereby lowering a cell's total ROS level as measured by DCF fluorescence (FIG. 8A). It should be noted that because 14 is highly lethal, concentrations ten-fold higher than the IC50 are required to lower a cell's ROS level. […] Similar experiments lacking addition of 14 show statistically significant increases in fluorescence intensities (p<0.001 for all time points while pretreated data set was not statistically significant from each other) with the endpoint having an intensity of 5.02±0.08.
# KEAP1 = test: Western blot against KEAP1 normalized to beta-actin; assay type: cell-based; conditions: AML cells
# Protocol: Finally, reactivity of 14 in a cell was examined (FIG. 8B). To accomplish this, western blot against KEAP1, normalized to beta-actin was performed. KEAP1 is a signaling molecule that inhibits NRF2^25, the transcription factor that regulates anti-oxidant concentrations in cells.
# [5] = tested on: UT (healthy untransformed cells); test: IC50 panel, healthy untransformed cells; assay type: cell-based
# From the text: (§3) Selectivity of compound 14 was examined by measuring IC50 against a variety of cell types, including AML cells obtained from individuals as well as common cell lines and healthy untransformed cells.
# [6] = tested on: A_MA9 (Individual 1 transformed with MLL-AF9 fusion); test: IC50 panel, A_MA9; assay type: cell-based
# From the text: as §3
# [7] = tested on: A_MA9 + FLT3 (Individual 1 transformed with MLL-AF9 and FLT3-ITD); test: IC50 panel, A_MA9 + FLT3; assay type: cell-based
# From the text: as §3
# [8] = tested on: A_MA9 + Nras (Individual 1 transformed with MLL-AF9 and NrasG12D); test: IC50 panel, A_MA9 + Nras; assay type: cell-based
# From the text: as §3
# [9] = tested on: B_MA9 (Individual 2 transformed with MLL-AF9); test: IC50 panel, B_MA9; assay type: cell-based
# From the text: as §3
# [10] = tested on: B_MA9 + FLT3 (Individual 2 transformed with MLL-AF9 and FLT3-ITD); test: IC50 panel, B_MA9 + FLT3; assay type: cell-based
# From the text: as §3
# [11] = tested on: B_MA9 + Nras (Individual 2 transformed with MLL-AF9 and NrasG12D); test: IC50 panel, B_MA9 + Nras; assay type: cell-based
# From the text: as §3
# [12] = tested on: HL60 (common AML cell line); test: IC50 panel, HL60; assay type: cell-based; conditions: Homo sapiens, HL-60
# From the text: as §3
# [13] = tested on: MOLM13 (common AML cell line); test: IC50 panel, MOLM13; assay type: cell-based; conditions: Homo sapiens, MOLM-13
# From the text: as §3
# [14] = tested on: Kasumi1 (common AML cell line); test: IC50 panel, Kasumi1; assay type: cell-based; conditions: Homo sapiens, Kasumi 1
# From the text: as §3
# [15] = Homo sapiens, MA9.3RAS AML cell line, MTT cell proliferation assay (Table 2 and text), read-out: IC50
# [16] = Homo sapiens, MA9.3RAS, MA9.3 AML cells, MTT assay (Table 3), read-out: IC50
compound,measurement,setting,value
CN(CC(=O)Nc1cc(O)ccc1O)c1ccccc1 [Compound 1],rate of conversion of 1 to 2,"[1]; PBS, absence of exogenous oxidant",0.011 ± 0.002 min⁻¹
same,conversion of 1 to 2 in one hour,[1]; absence of exogenous oxidant,approximately 50%
same,rate of conversion of 1 to 2,"[1]; presence of 10 mM H2O2, ten-fold excess",0.6 ± 0.1 min⁻¹
same,rate of conversion of 1 into 2,[1]; with hydrogen peroxide (FIG. 3D legend),0.6 min⁻¹
CN(CC(=O)NC1=CC(=O)C=CC1=O)c1ccccc1 [Compound 2],IC50,MA9.3RAS AML cells; [15],21 ± 4 µM
COc1ccc(OC)c(NC(=O)CN(C)c2ccccc2)c1 [Compound 3],IC50,MA9.3RAS AML cells; [15],> 100 µM
CN(CC(=O)Nc1ccccc1O)c1ccccc1 [Compound 4],IC50,MA9.3RAS AML cells; [15],> 100 µM
CN(CC(=O)Nc1cccc(O)c1)c1ccccc1 [Compound 5],IC50,MA9.3RAS AML cells; [15],> 100 µM
CC(=O)Nc1cc(O)ccc1O [Compound 6],IC50,MA9.3RAS AML cells; [15],35 ± 5 µM
same,selectivity factor (ratio of IC50 of normal cells over IC50 of AML cells),[2],Neither compound 6 nor compound 7 were selective
NC1=CC(=O)C=CC1=O [Compound 7],IC50,MA9.3RAS AML cells; [15],16 ± 2 µM
same,selectivity factor (ratio of IC50 of normal cells over IC50 of AML cells),[2],Neither compound 6 nor compound 7 were selective
O=C(CO)Nc1cc(O)ccc1O [Compound 8],IC50,MA9.3RAS AML cells; [15],12 ± 3 µM
O=C(CNc1ccccc1)Nc1cc(O)ccc1O [Compound 9],IC50,MA9.3RAS AML cells; [15],13 ± 2 µM
O=C(COc1ccccc1)Nc1cc(O)ccc1O [Compound 10],selectivity factor (ratio of IC50 of normal cells over IC50 of AML cells),[2],limited selectivity
O=C(CSc1ccccc1)Nc1cc(O)ccc1O [Compound 11],selectivity factor (ratio of IC50 of normal cells over IC50 of AML cells),[2],limited selectivity
CCCN(C)CC(=O)Nc1cc(O)ccc1O [Compound 12],IC50,MA9.3RAS AML cells; [15],18 ± 2 µM
"O=C(CNC1CCCCC1)Nc1cc(O)ccc1O [Compound 14, 2-(cyclohexylamino)-N-(2,5-dihydroxyphenyl)acetamide]","viability of AML cells, in words",MA9.3RAS AML cells; FIG. 6B,eradicated
same,IC50,MA9.3RAS AML cells; [15],2 µM
same,IC50,[3],20 ± 2 µM
same,"viability of normal blood stem cells, in words","[3]; concentration that eradicated AML cells, FIG. 6B",did not affect viability
same,selectivity,[2]; AML cells vs normal blood stem cells,11 fold
same,activation by hydrogen peroxide,[4],more than 150 fold
same,time for complete conversion of 14,[4]; hydrogen peroxide (FIG. 4C legend),less than 0.1 hours
same,t1/2 of oxidation,"[4]; normal atmosphere, pseudo-zero order kinetics",2.58 ± 0.217 h
same,t1/2 of oxidation,[4]; one molar equivalent hydrogen peroxide,less than 1 min
same,fraction of 14 converted to its oxidation product,[4]; two hours under argon atmosphere,4±3%
same,"cellular ROS levels (DCF fluorescence), in words","AML cells; 20 μM, AML cells",time dependent loss in cellular ROS levels
same,DCF fluorescence intensity at endpoint,"AML cells; AML cells treated with 14, end of time course, without 14 5.02±0.08",4.31±0.08
same,DCF fluorescence intensity at addition of 14,"AML cells; AML cells, start of time course",1.06±0.13
same,"KEAP1 level, in words",KEAP1; 2 μM,statistically significant reduction in KEAP1
same,relative concentration of KEAP1 (KEAP1 to ACTB),KEAP1; after 24 hrs,0.65±0.09
same,IC50,[5],22 ± 2 µM
same,IC50,[6],4 ± 0.7 µM
same,IC50,[7],1.8 ± 0.07 µM
same,IC50,[8],2.3 ± 0.08 µM
same,IC50,[9],3.7 ± 0.1 µM
same,IC50,[10],1.6 ± 0.1 µM
same,IC50,[11],2.5 ± 0.03 µM
same,IC50,[12],4 µM
same,IC50,[13],6 ± 1 µM
same,IC50,[14],19 ± 3 µM
"Nc1ccc(O)c(NC(=O)CNC2CCCCC2)c1 [Compound 16, N-(5-amino-2-hydroxyphenyl)-2-(cyclohexylamino)acetamide]",IC50,"MA9.3RAS AML cells; Homo sapiens, MA9.3RAS, 48 hours treatment, MTT, read-out: IC50 against MA9.3RAS AML cells",3 ± 1 µM
same,IC50,MA9.3RAS AML cells; [16],5 ± 2 µM
same,IC50,[3],55 ± 4 µM
O=C(CNC1CCCCC1)Nc1cc([N+](=O)[O-])ccc1O [Compound 17],IC50,MA9.3RAS AML cells; [16],22 ± 7 µM
C[C@@H](NC1CCCCC1)C(=O)Nc1cc(O)ccc1O [Compound 18],IC50,MA9.3RAS AML cells; [16],104 ± 2 µM
O=C(Nc1cc(O)ccc1O)C(NC1CCCCC1)C1CCCCC1 (stereo not shown) [Compound 19],IC50,MA9.3RAS AML cells; [16],107 ± 1 µM
"COc1cc(/C=C/C(=O)N2CCC=CC2=O)cc(OC)c1OC [PLG, piperlongumine, reference compound]",IC50,MA9.3RAS AML cells; [15],2 ± 1 µM
same,selectivity factor (ratio of IC50 of normal cells over IC50 of AML cells),[2],3.7±1
"parthenolide [PTL, reference compound]",IC50,"MA9.3RAS AML cells; MA9.3RAS AML cell line, MTT cell proliferation assay (Table 2 and text), read-out: IC50",3 ± 1 µM
same,selectivity factor (ratio of IC50 of normal cells over IC50 of AML cells),[2],2.1±0.4
